According to patent US20240307374A1, “FORMULATION OF FURIN INHIBITOR FOR INHALATION” (BP ASSET V, INC., priority 2021, published 2024):
Marks after values point to notes of the source that are not given here.

Tests used:
Format in all cases: physicochemical
[1] = DVS (dynamic vapor sorption) moisture uptake; conditions: for form change after DVS test (XRPD): XRPD before and after DVS
Procedure: (FIG. 5). Sample weight decreased rapidly when humidity decreased from 10% to 0%, which might be caused by loss of crystalline water.
DVS was measured via a SMS (Surface Measurement Systems) DVS Intrinsic.

[2] = Grinding stability; conditions: ~30 mg ground manually in a mortar for about 5 minutes
[3] = Equilibrium solubility in pH buffers (3.0-8.0), 20% captisol and water; conditions: 24 hrs; for S: solubility: RT
Procedure: Additional solids were added into the sample to generate suspension if clear solution obtained. The suspension was equilibrated via stirring (1000 rpm). The suspension was centrifuged to obtain precipitate and supernatants.
Solubility and pH were tested for the supernatants after filtration, and isolated precipitate was tested by XRPD.
(§1) • 1. pH=3.0 buffer (50 mM HCl+KCl): Weigh 365.39 mg KCl into a 100 mL volumetric flask (VF), and add 0.1 mL 1M HCl into the VF, and dilute to volume with water. • 2. pH=4.0 buffer (50 mM citrate): Weigh 56.74 mg citric acid and 60.18 mg trisodium citrate into a 10 mL volumetric flask, and dilute to volume with water. • 3. pH=5.0 buffer (50 mM citrate) Weigh 11.12 mg citric acid and 95.38 mg trisodium citrate into a 10 mL volumetric flask, and dilute to volume with water. • 4. pH=6.0 buffer (50 mM citrate) Weigh 11.04 mg citric acid and 130.2 mg trisodium citrate into a 10 mL volumetric flask, and dilute to volume with water. • 5. pH=6.0 buffer (50 mM phosphate) Weigh 8.7 mg Na2HPO4 and 52.6 mg NaH2PO4 into a 10 mL volumetric flask, and dilute to volume with water. • 6. pH=7.0 buffer (50 mM phosphate) Weigh 23.47 mg Na2HPO4 and 43.34 mg NaH2PO4into a 10 mL volumetric flask, and dilute to volume with water. • 7. pH=8.0 buffer (50 mM phosphate) Weigh 31.64 mg Na2HPO4 and 67.18 mg NaH2PO4into a 10 mL volumetric flask, and dilute to volume with water.

[4] = Equilibrium solubility in pH buffers (pH 4.0-6.0) with pH adjustment; conditions: for S: solubility: RT, with pH adjustment; for pH before adjustment (in brackets): 24 hours
Procedure: In details, ˜5 mg of solids were suspended into 1 mL of each medium with dosing conc. at ˜5 mg/mL. Additional solids were added into the sample to generate suspension if clear solution was obtained. The suspension was equilibrated via stirring (1000 rpm) for 24 hours. The pH of the suspension was adjusted when the final pH shifted above 0.3, and the samples were stirred for another 1.5 hours after pH adjustment. The suspension was centrifuged to obtain precipitate and supernatants. Solubility, purity and pH were tested for the supernatants after filtration, and isolated precipitate was tested by XRPD.
as §1

[5] = pH = 3.0 buffer (50 mM HCl + KCl)
[6] = pH = 4.0 buffer (50 mM citrate)
[7] = pH = 5.0 buffer (50 mM citrate)
[8] = pH = 6.0 buffer (50 mM citrate)
[9] = pH = 7.0 buffer (50 mM phosphate)
[10] = pH = 8.0 buffer (50 mM phosphate)
[11] = pH = 6.0 buffer (50 mM phosphate)

With `CC(=O)NCC1CCN(Cc2cc(Oc3ccc(N4CCN(CCC(=O)O)CC4)nc3)nc(-c3cc(Cl)cc(Cl)c3)c2)CC1` [Fumarate Type A] the “Moisture Uptake (DVS)” value ([1]; 25° C., from 30% RH to 80% RH) was 2.5 (from 30% RH to 80% RH), the “form change after DVS test (XRPD)” value [1] was “crystallinity of fumarate Type A decreased” and the “crystallinity after grinding (XRPD)” value [2] was “decreased after grinding”. For the same compound, the “pH of supernatant (final pH)” value ([3]; 20% Captisol (pH = 5.0, w/v)) was 4.3, the “S: solubility” value ([3]; 20% Captisol (pH = 5.0, w/v)) was 29.6 mg/mL and the “FC: form change (XRPD of precipitate)” value ([3]; H2O) was 4 (1/2/3/4/5: new Form 1/2/3/4/5). For the same compound, the “pH of supernatant (final pH)” value ([3]; H2O) was 3.8, the “S: solubility” value ([3]; H2O) was 1.85 mg/mL and the “FC: form change (XRPD of precipitate)” value [3, 5] was 5 (1/2/3/4/5: new Form 1/2/3/4/5). The “pH of supernatant (final pH)” value [3, 5] was 3.5, the “S: solubility” value [3, 5] was 0.65 mg/mL and the “FC: form change (XRPD of precipitate)” value [3, 6] was 4 (1/2/3/4/5: new Form 1/2/3/4/5). For the same compound, the “pH of supernatant (final pH)” value [3, 6] was 4.1, the “S: solubility” value [3, 6] was 3.45* mg/mL and the “FC: form change (XRPD of precipitate)” value [3, 7] was 4 (1/2/3/4/5: new Form 1/2/3/4/5). For the same compound, the “pH of supernatant (final pH)” value [3, 7] was 4.8, the “S: solubility” value [3, 7] was 7.79 mg/mL and the “FC: form change (XRPD of precipitate)” value [3, 8] was 4 (1/2/3/4/5: new Form 1/2/3/4/5). For the same compound, the “pH of supernatant (final pH)” value [3, 8] was 5.1, the “S: solubility” value [3, 8] was 20.6 mg/mL and the “pH of supernatant (final pH)” value [3, 9] was 6.6. For the same compound, the “S: solubility” value [3, 9] was 0.05 mg/mL, the “pH of supernatant (final pH)” value [3, 10] was 7.2 and the “S: solubility” value [3, 10] was 0.02 mg/mL. The “Area % (purity of supernatant)” value [4, 6] was 99.3 Area %, the “FC: form change (XRPD of precipitate)” value [4, 6] was 4 (3/4/6/7/8: new Form 3/4/6/7/8) and the “pH (final, after adjustment where adjusted)” value [4, 6] was 4.0. For the same compound, the “S: solubility” value [4, 6] was 3.04 mg/mL, the “Area % (purity of supernatant)” value [4, 7] was 99.4 Area % and the “FC: form change (XRPD of precipitate)” value [4, 7] was 4 (3/4/6/7/8: new Form 3/4/6/7/8). The “pH (final, after adjustment where adjusted)” value [4, 7] was 4.9*, the “pH before adjustment (in brackets)” value [4, 7] was “(4.1)” and the “S: solubility” value [4, 7] was 19.3 mg/mL. For the same compound, the “Area % (purity of supernatant)” value [4, 8] was 98.6 Area %, the “FC: form change (XRPD of precipitate)” value [4, 8] was 7 (3/4/6/7/8: new Form 3/4/6/7/8) and the “pH (final, after adjustment where adjusted)” value [4, 8] was 6.1*. The “pH before adjustment (in brackets)” value [4, 8] was “(5.0)”, the “S: solubility” value [4, 8] was 0.24 mg/mL and the “Area % (purity of supernatant)” value [4, 11] was 95.6 Area %. The “pH (final, after adjustment where adjusted)” value [4, 11] was 6.2*, the “pH before adjustment (in brackets)” value [4, 11] was “(4.6)” and the “S: solubility” value [4, 11] was 0.09 mg/mL.
With `CC(=O)NCC1CCN(Cc2cc(Oc3ccc(N4CCN(CCC(=O)O)CC4)nc3)nc(-c3cc(Cl)cc(Cl)c3)c2)CC1` [Sulfate Type B] the “form change after DVS test (XRPD)” value [1] was “Two additional peaks”, the “crystallinity after grinding (XRPD)” value [2] was “decreased after grinding” and the “pH of supernatant (final pH)” value ([3]; 20% Captisol (pH = 5.0, w/v)) was 2.6. For the same compound, the “S: solubility” value ([3]; 20% Captisol (pH = 5.0, w/v)) was >44.5^1 mg/mL, the “FC: form change (XRPD of precipitate)” value ([3]; H2O) was “N (N: solid form not changed)” and the “pH of supernatant (final pH)” value ([3]; H2O) was 2.4. The “S: solubility” value ([3]; H2O) was 1.97 mg/mL, the “FC: form change (XRPD of precipitate)” value [3, 5] was 1 (1/2/3/4/5: new Form 1/2/3/4/5) and the “pH of supernatant (final pH)” value [3, 5] was 2.3. The “S: solubility” value [3, 5] was 8.00 mg/mL, the “FC: form change (XRPD of precipitate)” value [3, 6] was “Low (Low: low crystallinity)” and the “pH of supernatant (final pH)” value [3, 6] was 3.8. For the same compound, the “S: solubility” value [3, 6] was 2.33 mg/mL, the “FC: form change (XRPD of precipitate)” value [3, 7] was 3 (1/2/3/4/5: new Form 1/2/3/4/5) and the “pH of supernatant (final pH)” value [3, 7] was 4.4. For the same compound, the “S: solubility” value [3, 7] was 1.66* mg/mL, the “FC: form change (XRPD of precipitate)” value [3, 8] was 3 (1/2/3/4/5: new Form 1/2/3/4/5) and the “pH of supernatant (final pH)” value [3, 8] was 4.3. For the same compound, the “S: solubility” value [3, 8] was 0.93* mg/mL, the “FC: form change (XRPD of precipitate)” value [3, 9] was 2 (1/2/3/4/5: new Form 1/2/3/4/5) and the “pH of supernatant (final pH)” value [3, 9] was 5.6. The “S: solubility” value [3, 9] was 0.61* mg/mL, the “pH of supernatant (final pH)” value [3, 10] was 6.9 and the “S: solubility” value [3, 10] was 0.04* mg/mL. For the same compound, the “Area % (purity of supernatant)” value [4, 6] was 99.2 Area %, the “FC: form change (XRPD of precipitate)” value [4, 6] was “Low (Low; low crystallinity)” and the “pH (final, after adjustment where adjusted)” value [4, 6] was 3.9. For the same compound, the “S: solubility” value [4, 6] was 2.29 mg/mL, the “Area % (purity of supernatant)” value [4, 7] was 99.4 Area % and the “FC: form change (XRPD of precipitate)” value [4, 7] was 3 (3/4/6/7/8: new Form 3/4/6/7/8). For the same compound, the “pH (final, after adjustment where adjusted)” value [4, 7] was 5.0*, the “pH before adjustment (in brackets)” value [4, 7] was “(4.5)” and the “S: solubility” value [4, 7] was 6.82^# mg/mL. The “Area % (purity of supernatant)” value [4, 8] was 92.6 Area %, the “FC: form change (XRPD of precipitate)” value [4, 8] was 6 (3/4/6/7/8: new Form 3/4/6/7/8) and the “pH (final, after adjustment where adjusted)” value [4, 8] was 6.1*. For the same compound, the “pH before adjustment (in brackets)” value [4, 8] was “(4.4)”, the “S: solubility” value [4, 8] was 0.07 mg/mL and the “Area % (purity of supernatant)” value [4, 11] was 88.2 Area %. For the same compound, the “pH (final, after adjustment where adjusted)” value [4, 11] was 6.2*, the “pH before adjustment (in brackets)” value [4, 11] was “(3.0)” and the “S: solubility” value [4, 11] was 0.06 mg/mL.
